Results published in ChEMBL document CHEMBL1268851, “Anti-inflammatory Biphenyls and Dibenzofurans from Rhaphiolepis indica” (J Nat Prod, 2010).
pIC50: −log10 of the molar value.

Experiment: Antiinflammatory activity in human neutrophils assessed as inhibition of fMLP-indcued superoxide production after 5 mins
Type: functional, cell-based
Settings: Neutrophil

| pIC50 | Compound |
| --- | --- |
| 4.56 | CC(C)Cc1ccc(C(C)C(=O)O)cc1 (stereo not drawn) [IBUPROFEN] |
| 4.47 | COc1cc(O)cc(-c2ccccc2)c1 |
| 4.56 | COc1c(O)cc2c(oc3c(OC)cccc32)c1OC |
| 5.69 | COc1cc(O)cc(-c2ccccc2O)c1 |
| 5.08 | COc1cc(O)cc(-c2ccccc2OC)c1 |
| 5.12 | COc1c(O)cc2c(oc3c(OC)ccc(OC)c32)c1OC |
| < 4.00 | COc1c2c(c3c(oc4c(OC)cccc43)c1OC)OCO2 |
| 4.56 | COc1c(O)cc2c(oc3cccc(OC)c32)c1OC |
